Our source for the TGI and GI50 values is PubChem BioAssay (NCI).

Some test systems named below: DU-145 prostate; HL-60(TB) leukemia; KM20L2 colon; MALME-3M melanoma; HS 578T breast; M19-MEL melanoma; COLO 205 colon; OVCAR-4 ovarian; HCT-116 colon; K-562 leukemia.
Common to all, as to assay: NCI tumour cell line growth inhibition, 48 h

Several values for one entry are separate records, joined by “and”; a condition that tells them apart may be missing. Equal values may be shown once.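 Briefly, cells in 96-well plates were exposed to five compound concentrations for 48 h, and endpoints were estimated by linear interpolation. At the GI50, growth is halved. TGI marks complete inhibition of growth.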

On to `Cc1ccc(/C=C2\CNC/C(=C\c3ccc(C)cc3)C2=O)cc1`, for which the TGI is 16 µM in the experiment on DU-145 prostate; 6.46 µM and 2.53 µM in the experiment on HL-60(TB) leukemia; 3.02 µM and 3.14 µM in the experiment on KM20L2 colon; 6.37 µM and 38.5 µM with MALME-3M melanoma; above 100 µM in the experiment on HS 578T breast; 2.98 µM and 5 µM in the experiment with M19-MEL melanoma. The TGI in the experiment with COLO 205 colon is 2.78 µM and 7.3 µM; with OVCAR-4 ovarian, 4.04 µM and 23.1 µM; in the experiment with HCT-116 colon, 0.382 µM and 1.93 µM; with K-562 leukemia, 2.68 µM. For the same compound, the GI50 in the experiment with HL-60(TB) leukemia is 1.41 µM; in the experiment with MALME-3M melanoma, 2.4 µM; in the experiment with M19-MEL melanoma, 2.1 µM; in the experiment with COLO 205 colon it was 1.45 µM; with OVCAR-4 ovarian it was 1.89 µM; in the experiment on HCT-116 colon, 0.202 µM. Moreover, in the experiment with K-562 leukemia, the GI50 is 1.14 µM.
Regarding `NC(=O)c1c[se]c(C2OC(COP(=O)(O)CP(=O)(O)OCC3OC(n4cnc5c(N)ncnc54)C(O)C3O)C(O)C2O)n1` (stereo unspecified), the TGI with HL-60(TB) leukemia, with KM20L2 colon, in the experiment on MALME-3M melanoma, in the experiment on M19-MEL melanoma, in the experiment on COLO 205 colon and with OVCAR-4 ovarian was above 100 µM in each case. The TGI in the experiment on HCT-116 colon and in the experiment with K-562 leukemia was above 100 µM throughout.
On to `O=C1C(c2ccccc2)=C(c2ccccc2)[C@H](c2ccccc2)[C@]1(Cc1nnn(-c2ccc([N+](=O)[O-])cc2)c1N1CCOCC1)c1ccccc1`, for which the TGI in the experiment with HL-60(TB) leukemia, with KM20L2 colon, in the experiment with M19-MEL melanoma, in the experiment on COLO 205 colon, in the experiment with OVCAR-4 ovarian and in the experiment with HCT-116 colon was above 37.5 µM each time. Also, the TGI in the experiment on K-562 leukemia was above 37.5 µM.
Take `COC(=O)C1(F)C(=O)NC(=O)NC1OC` (stereo unspecified): the TGI with HL-60(TB) leukemia, in the experiment on KM20L2 colon, in the experiment with MALME-3M melanoma, in the experiment with M19-MEL melanoma, in the experiment with COLO 205 colon and with OVCAR-4 ovarian was above 100 µM each time. Besides, the figures for the TGI in the experiment with HCT-116 colon and with K-562 leukemia were 94.7 µM and above 100 µM, respectively.
Take `Cc1cc(NC(=O)NC(=O)c2ccccc2N(C)C)ccc1Oc1ncc(Br)cn1`: the TGI in the experiment with DU-145 prostate was above 63.1 µM; with HL-60(TB) leukemia, 0.388 µM and 0.981 µM; in the experiment on KM20L2 colon it was 0.796 µM; with MALME-3M melanoma, above 100 µM; in the experiment on HS 578T breast it was above 100 µM; in the experiment on M19-MEL melanoma it was above 100 µM. Also, the values for the TGI with OVCAR-4 ovarian, with HCT-116 colon and with K-562 leukemia were above 68.1 µM, 50.2 µM and 27.3 µM, respectively. Moreover, the GI50 in the experiment with HL-60(TB) leukemia was 0.0879 µM; in the experiment on MALME-3M melanoma, 2.22 µM; in the experiment on M19-MEL melanoma it was 2.51 µM; in the experiment on COLO 205 colon, 0.266 µM; in the experiment on OVCAR-4 ovarian, 3.45 µM; with HCT-116 colon it was 0.389 µM. Besides, the GI50 with K-562 leukemia was 0.21 µM.
Take `CC[P+]1(CC)CCCC1`: the TGI in the experiment on KM20L2 colon, with MALME-3M melanoma, with M19-MEL melanoma, with COLO 205 colon, in the experiment on OVCAR-4 ovarian and in the experiment on K-562 leukemia was above 100 µM throughout.
For `CC(C)(CO)N=Cc1ccccc1[O-].CC(C)(CO)N=Cc1ccccc1[O-].[Co+2]`, the GI50 in the experiment on DU-145 prostate was 42.1 µM; in the experiment on HL-60(TB) leukemia, 11.8 µM; in the experiment with KM20L2 colon it was 61.9 µM; with MALME-3M melanoma it was 49.5 µM; in the experiment on HS 578T breast it was above 100 µM; in the experiment on M19-MEL melanoma, above 73.8 µM. Also, the GI50 in the experiment with COLO 205 colon was 55.9 µM; in the experiment on OVCAR-4 ovarian, 71.9 µM; in the experiment on HCT-116 colon, 69.8 µM; with K-562 leukemia it was 47.3 µM. Besides, the TGI in the experiment with DU-145 prostate was above 100 µM; in the experiment with HL-60(TB) leukemia it was 79.4 µM; in the experiment on KM20L2 colon it was above 100 µM; in the experiment on MALME-3M melanoma, above 100 µM; in the experiment with HS 578T breast, above 100 µM; in the experiment on M19-MEL melanoma it was above 100 µM. For the same compound, the TGI in the experiment on COLO 205 colon, in the experiment on OVCAR-4 ovarian, with HCT-116 colon and in the experiment on K-562 leukemia was above 100 µM each time.
For `NS(=O)(=O)c1ccc(NC(=O)c2cccn3c(=O)c4ccccc4nc23)cc1`, the TGI in the experiment with HL-60(TB) leukemia, with KM20L2 colon, in the experiment on MALME-3M melanoma, with M19-MEL melanoma, in the experiment with COLO 205 colon and in the experiment on OVCAR-4 ovarian was above 100 µM each time. The TGI in the experiment on HCT-116 colon and in the experiment on K-562 leukemia was above 100 µM each time.
For `COC(=O)c1cc2c3c(ccc2[nH]1)N(C(=O)c1cc2c4c(ccc2[nH]1)N(C(=O)c1cc2c5c(ccc2[nH]1)N(C(N)=O)CC5)CC4)CC3`, the TGI was above 70.5 µM in the experiment with HL-60(TB) leukemia; above 100 µM with KM20L2 colon; above 24.2 µM with MALME-3M melanoma; above 36 µM in the experiment with COLO 205 colon; above 100 µM with OVCAR-4 ovarian; above 100 µM in the experiment on HCT-116 colon. Besides, the TGI in the experiment with K-562 leukemia was above 100 µM.
For `CC1(C)OC(COCCOCCCCCO)C(COCCOCCCCCO)O1` (stereo unspecified), the TGI in the experiment with KM20L2 colon, in the experiment on MALME-3M melanoma, in the experiment on M19-MEL melanoma, with COLO 205 colon, with OVCAR-4 ovarian and in the experiment on HCT-116 colon was above 100 µM in each case. Further, the TGI in the experiment on K-562 leukemia is above 100 µM.
`C[C@@]12CCCC(=O)N1[C@@H](CO)C(c1ccccc1)O2` (stereo partly specified): the TGI with KM20L2 colon, in the experiment on MALME-3M melanoma, in the experiment on M19-MEL melanoma, in the experiment with COLO 205 colon, with OVCAR-4 ovarian and with HCT-116 colon was above 100 µM in each case. Also, the TGI in the experiment with K-562 leukemia was above 100 µM.
As for `COc1nc2c(c(O)c(C)c(=O)n2OC2OC(COC(C)=O)C(OC(C)=O)C(OC(C)=O)C2OC(C)=O)c(=O)n1C` (stereo unspecified), the TGI with KM20L2 colon, in the experiment on M19-MEL melanoma, in the experiment with COLO 205 colon, in the experiment on OVCAR-4 ovarian, with HCT-116 colon and in the experiment on K-562 leukemia was above 100 µM in each case.
On to `COc1ccc(C2NCCc3c2[nH]c2ccccc32)cc1` (stereo unspecified), for which the TGI with HL-60(TB) leukemia, in the experiment with KM20L2 colon, with MALME-3M melanoma, with M19-MEL melanoma, with COLO 205 colon and with HCT-116 colon was above 100 µM each time. For the same compound, the TGI with K-562 leukemia is above 100 µM.
Consider `CC(=O)OCCC(O[Si](c1ccccc1)(c1ccccc1)C(C)(C)C)C(C)(C)O` (stereo unspecified), for which the TGI with KM20L2 colon is above 100 µM; in the experiment on MALME-3M melanoma, above 100 µM; in the experiment with M19-MEL melanoma, 57.2 µM; in the experiment with COLO 205 colon it was 30.3 µM; in the experiment with OVCAR-4 ovarian, above 100 µM; with HCT-116 colon, 31.2 µM. In addition, the TGI in the experiment on K-562 leukemia was above 100 µM.
